Patent publication US20260217701A1, “SELECTIVE BET INHIBITORS AND USES THEREOF” (Tay Therapeutics Limited, priority 2022, published 2026)
“And” between values parts separate entries of the source, which are not always exact repeats. Equal entries are not always repeated. Where two headings read alike, the source gives them in different places. Marks after values point to notes of the source that are not given here.

Experiments:
[1] = CIA study: pharmacokinetics / plasma concentration after oral administration; type: in vivo, Lewis rats; details: for concentration at 2 h / concentration at 4 h / concentration at 6 h / concentration at 8 h / concentration at 0.25 h / concentration at 0.5 h / concentration at 1 h / concentration at 24 h / Plasma Concentration: oral 3 mg/kg
[2] = biological target: T1, BRD4 BD2 (Homo sapiens, UniProt O60885); experiment: NanoBRET bromodomain assay, NanoLuc-BRD4-BD2 in HEK293 cells; type: binding
T1 construct: HEK293 cells were transfected using NanoLuc-BRD4-BD1 or NanoLuc-BRD4-BD2 fusion vectors
Method: Plates were then incubated at 37° C.+5% CO2 incubator for 2 hours.
Fold Selectivity Calculated (IC50 BD1/IC50 BD2).

[3] = tested on: anti-collagen IgG1; experiment: CIA model: rat anti-collagen IgG1 levels; type: in vivo, Lewis rats; parameters: Average rat anti-collagen IgG1 levels, Mean: unit not given here

Compound: Cn1cc(-c2ccccc2)c(-c2cn(C)c(=O)c3[nH]c(-c4cnn(C(F)(F)F)c4)cc23)cc1=O [Compound A, 6-methyl-4-(1-methyl-2-oxo-5-phenyl-1,2-dihydropyridin-4-yl)-2-(1-(trifluoromethyl)-1H-pyrazol-4-yl)-1,6-dihydro-7H-pyrrolo[2,3-c]pyridin-7-one]
- MRT inf ([1]; Lewis, rat, plasma, po, 3 mg/kg, CIA-induced animals, day 21, 3 mg/kg, individual test subjects, read-out: MRTInf—obs): 10.1 h
- half-life ([1]; Lewis, rat, plasma, po, 3 mg/kg, CIA-induced animals, day 21, 3 mg/kg, individual test subjects, read-out: T1/2 (converted)): 6.79 h
- Tmax ([1]; Lewis, rat, plasma, po, 3 mg/kg, CIA-induced animals, day 21, 3 mg/kg, individual test subjects, read-out: Tmax): 4 h
- concentration at 2 h ([1]; Lewis, rat, plasma, po, 3 mg/kg, day 0, 2 h, individual test subjects, read-out: Plasma concentration): 0.109 µg/mL
- concentration at 4 h ([1]; Lewis, rat, plasma, po, 3 mg/kg, day 0, 4 h, individual test subjects, read-out: Plasma concentration): 0.112 µg/mL
- concentration at 6 h ([1]; Lewis, rat, plasma, po, 3 mg/kg, day 0, 6 h, individual test subjects, read-out: Plasma concentration): 0.123 µg/mL
- concentration at 8 h ([1]; Lewis, rat, plasma, po, 3 mg/kg, day 0, 8 h, individual test subjects, read-out: Plasma concentration): 0.119 µg/mL
- concentration at 0.25 h ([1]; Lewis, rat, plasma, po, 3 mg/kg, day 0, time 0.25, read-out: Mean Concentration (average plasma concentration)): 0.0168 µg/mL
- concentration at 0.5 h ([1]; Lewis, rat, plasma, po, 3 mg/kg, day 0, time 0.5, read-out: Mean Concentration (average plasma concentration)): 0.0281 µg/mL
- concentration at 1 h ([1]; Lewis, rat, plasma, po, 3 mg/kg, day 0, time 1, read-out: Mean Concentration (average plasma concentration)): 0.0511 µg/mL
- concentration at 2 h ([1]; Lewis, rat, plasma, po, 3 mg/kg, day 0, time 2, read-out: Mean Concentration (average plasma concentration)): 0.079 µg/mL
- concentration at 4 h ([1]; Lewis, rat, plasma, po, 3 mg/kg, day 0, time 4, read-out: Mean Concentration (average plasma concentration)): 0.09 µg/mL
- concentration at 6 h ([1]; Lewis, rat, plasma, po, 3 mg/kg, day 0, time 6, read-out: Mean Concentration (average plasma concentration)): 0.094 µg/mL
- concentration at 8 h ([1]; Lewis, rat, plasma, po, 3 mg/kg, day 0, time 8, read-out: Mean Concentration (average plasma concentration)): 0.09 µg/mL
- concentration at 24 h ([1]; Lewis, rat, plasma, po, 3 mg/kg, day 0, time 24): 0.0223 µg/mL
- concentration at 0.25 h ([1]; Lewis, rat, plasma, po, 3 mg/kg, day 21, 0.25 h, individual test subjects, read-out: Plasma concentration): 0.0184 µg/mL
- concentration at 0.5 h ([1]; Lewis, rat, plasma, po, 3 mg/kg, day 21, 0.5 h, individual test subjects, read-out: Plasma concentration): 0.0222 µg/mL
- concentration at 1 h ([1]; Lewis, rat, plasma, po, 3 mg/kg, day 21, 1 h, individual test subjects, read-out: Plasma concentration): 0.0336 µg/mL
- concentration at 2 h ([1]; Lewis, rat, plasma, po, 3 mg/kg, day 21, 2 h, individual test subjects, read-out: Plasma concentration): 0.033 µg/mL
- concentration at 4 h ([1]; Lewis, rat, plasma, po, 3 mg/kg, day 21, 4 h, individual test subjects, read-out: Plasma concentration): 0.0483 µg/mL
- concentration at 6 h ([1]; Lewis, rat, plasma, po, 3 mg/kg, day 21, 6 h, individual test subjects, read-out: Plasma concentration): 0.0442 µg/mL
- concentration at 8 h ([1]; Lewis, rat, plasma, po, 3 mg/kg, day 21, 8 h, individual test subjects, read-out: Plasma concentration): 0.0309 µg/mL
- concentration at 0.25 h ([1]; Lewis, rat, plasma, po, 3 mg/kg, day 21, time 0.25, read-out: Mean Concentration (average plasma concentration)): 0.0154 µg/mL
- concentration at 0.5 h ([1]; Lewis, rat, plasma, po, 3 mg/kg, day 21, time 0.5, read-out: Mean Concentration (average plasma concentration)): 0.021 µg/mL
- concentration at 1 h ([1]; Lewis, rat, plasma, po, 3 mg/kg, day 21, time 1, read-out: Mean Concentration (average plasma concentration)): 0.0287 µg/mL
- concentration at 2 h ([1]; Lewis, rat, plasma, po, 3 mg/kg, day 21, time 2, read-out: Mean Concentration (average plasma concentration)): 0.0375 µg/mL
- concentration at 4 h ([1]; Lewis, rat, plasma, po, 3 mg/kg, day 21, time 4, read-out: Mean Concentration (average plasma concentration)): 0.0458 µg/mL
- concentration at 6 h ([1]; Lewis, rat, plasma, po, 3 mg/kg, day 21, time 6, read-out: Mean Concentration (average plasma concentration)): 0.047 µg/mL
- concentration at 8 h ([1]; Lewis, rat, plasma, po, 3 mg/kg, day 21, time 8, read-out: Mean Concentration (average plasma concentration)): 0.0406 µg/mL
- concentration at 24 h ([1]; Lewis, rat, plasma, po, 3 mg/kg, day 21, time 24): 0.0122 µg/mL
- AUC ([1]; Lewis, rat, plasma, po, CIA-induced animals, day 21, 3 mg/kg, average, read-out: AUClnf (Mean)): 0.904 µg·h/mL
- Plasma Concentration ([1]; day 0, 0.25 h, individual test subjects, 3 mg/kg): 0.0287 µg/mL and 0.0129 µg/mL and 0.00885 µg/mL
- Plasma Concentration ([1]; day 0, 0.5 h, individual test subjects, 3 mg/kg): 0.0393 µg/mL and 0.0254 µg/mL and 0.0195 µg/mL
- Plasma Concentration ([1]; day 0, 1 h, individual test subjects, 3 mg/kg): 0.0784 µg/mL and 0.0401 µg/mL and 0.0347 µg/mL
- Plasma Concentration ([1]; day 0, 2 h, individual test subjects, 3 mg/kg): 0.066 µg/mL and 0.0627 µg/mL
- Plasma Concentration ([1]; day 0, 4 h, individual test subjects, 3 mg/kg): 0.0779 µg/mL and 0.0807 µg/mL
- Plasma Concentration ([1]; day 0, 6 h, individual test subjects, 3 mg/kg): 0.0771 µg/mL and 0.0826 µg/mL
- Plasma Concentration ([1]; day 0, 8 h, individual test subjects, 3 mg/kg): 0.0761 µg/mL and 0.0744 µg/mL
- Plasma Concentration ([1]; day 0, 24 h, individual test subjects, 3 mg/kg): 0.0356 µg/mL and 0.0141 µg/mL and 0.0173 µg/mL
- Plasma Concentration ([1]; day 21, 0.25 h, individual test subjects, 3 mg/kg): 0.0147 µg/mL and 0.0131 µg/mL
- Plasma Concentration ([1]; day 21, 0.5 h, individual test subjects, 3 mg/kg): 0.0209 µg/mL and 0.0198 µg/mL
- Plasma Concentration ([1]; day 21, 1 h, individual test subjects, 3 mg/kg): 0.027 µg/mL and 0.0255 µg/mL
- Plasma Concentration ([1]; day 21, 2 h, individual test subjects, 3 mg/kg): 0.0456 µg/mL and 0.0338 µg/mL
- Plasma Concentration ([1]; day 21, 4 h, individual test subjects, 3 mg/kg): 0.0443 µg/mL and 0.0447 µg/mL
- Plasma Concentration ([1]; day 21, 6 h, individual test subjects, 3 mg/kg): 0.0512 µg/mL and 0.0457 µg/mL
- Plasma Concentration ([1]; day 21, 8 h, individual test subjects, 3 mg/kg): 0.0456 µg/mL and 0.0453 µg/mL
- Plasma Concentration ([1]; day 21, 24 h, individual test subjects, 3 mg/kg): 0.0066 µg/mL and 0.0156 µg/mL and 0.0144 µg/mL
- selectivity for BDII relative to GSK620 [2]: greater than about two orders of magnitude
- Selectivity (BD1/BD2) ([2]; nanoBRET assay, given as symbol only, higher number denotes higher selectivity): >>>>
- BD2 ([2]; nanoBRET assay, given as symbol only, lower number denotes higher potency): <
- EC50 ([2]; previously determined, reference level for rat plasma concentrations (FIG. 4D), read-out: free EC50 BD2 BRD4 (converted)): 0.0189 µM
- EC50 ([2]; reference level for dog plasma concentrations (Dog PK study #4), read-out: free EC50 BD2 BRD4 (converted)): 0.0145 µM
- EC50 ([2]; stated with the CIA study PK, domain not stated, read-out: free EC50 (converted)): 0.0172 µM
- Average rat anti-collagen IgG1 levels, Mean ([3]; Group 5 (CIA + Compound A 1 mg/kg)): 1180.61**
- Average rat anti-collagen IgG1 levels, Mean ([3]; Group 6 (CIA + Compound A 3 mg/kg)): 569.60**
- Average rat anti-collagen IgG1 levels, Mean ([3]; Group 7 (CIA + Compound A 10 mg/kg)): 220.15**
- Inhibition of IgG1 ([3]; all three doses): near complete inhibition of IgG1
